Measurements reported in patent US20160145247A1, “Aminomethyl-Biaryl Derivatives Complement Factor D inhibitors and uses thereof” (NOVARTIS AG, priority 2013, published 2016).
pIC50: −log10 of the molar value.

target: T1, factor D (Homo sapiens, UniProt P00746); experiment: factor D inhibition assay of Biological Example 2; type: biochemical
T1 construct: made in house; host or cells: E. coli
T1 sequence (P00746 26-253): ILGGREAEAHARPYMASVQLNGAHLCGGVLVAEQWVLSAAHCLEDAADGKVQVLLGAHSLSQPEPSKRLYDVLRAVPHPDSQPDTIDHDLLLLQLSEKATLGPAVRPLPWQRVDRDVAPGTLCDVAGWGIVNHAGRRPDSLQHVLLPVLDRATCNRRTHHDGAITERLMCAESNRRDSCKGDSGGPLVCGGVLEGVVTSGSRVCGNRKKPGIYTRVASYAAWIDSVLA

Row | SMILES | pIC50
1 | C[C@@H](N)c1cccc(-c2cc(CCc3ccn(C)n3)cc(COc3ccccc3CC(=O)O)c2)c1F [Example 218-I, (R)-2-(2-((3′-(1-aminoethyl)-2′-fluoro-5-(2-(1-methyl-1H-pyrazol-3-yl)ethyl)-[1,1′-biphenyl]-3-yl)methoxy)phenyl)acetic acid] | 8.00
2 | C[C@@H](N)c1cccc(-c2ccc3c(c2)N(Cc2ccccc2CC(=O)O)CCC3)c1F [Example 219-D, (R)-2-(2-((7-(3-(1-Aminoethyl)-2-fluorophenyl)-3,4-dihydroquinolin-1(2H)-yl)methyl)phenyl)acetic acid] | 7.21
3 | C[C@@H](N)c1cccc(-c2cc(N)c(F)c(COc3ccccc3CC(=O)O)c2)c1F [Example 221 a), (R)-2-(2-((5-amino-3′-(1-aminoethyl)-2′,4-difluoro-[1,1′-biphenyl]-3-yl)methoxy)phenyl)acetic acid] | 8.22
4 | C[C@@H](N)c1cccc(-c2cc(COc3ccccc3CC(=O)O)cc(NCC3CCCO3)c2F)c1F (stereo partly drawn) [Example 222, 2-(2-((3′-((R)-1-aminoethyl)-2′,6-difluoro-5-(((tetrahydrofuran-2-yl)methyl)amino)-[1,1′-biphenyl]-3-yl)methoxy)phenyl)acetic acid] | 7.80
5 | COCCNc1cc(COc2ccccc2CC(=O)O)cc(-c2cccc([C@@H](C)N)c2F)c1 [Example 223-B, (R)-2-(2-((3′-(1-aminoethyl)-2′-fluoro-5-((2-methoxyethyl)amino)-[1,1′-biphenyl]-3-yl)methoxy)phenyl)acetic acid] | 8.05
6 | CC(C)CNc1cc(COc2ccccc2CC(=O)O)cc(-c2cccc([C@@H](C)N)c2F)c1 [Example 224-B, (R)-2-(2-((3′-(1-aminoethyl)-2′-fluoro-5-(isobutylamino)-[1,1′-biphenyl]-3-yl)methoxy)phenyl)acetic acid] | 8.05
7 | C[C@@H](N)c1cccc(-c2cc(COc3ccccc3CC(=O)O)cc(OCC(F)(F)F)c2)c1F [Example 231-B, (R)-2-(2-((3′-(1-aminoethyl)-2′-fluoro-5-(2,2,2-trifluoroethoxy)-[1,1′-biphenyl]-3-yl)methoxy)phenyl)acetic acid] | 7.96
8 | C[C@H](N)c1cccc(-c2cc(COc3ccccc3CC(=O)O)cc(OC[C@H]3CCCO3)c2)c1F [Example 233, 2-(2-((3′-((S)-1-aminoethyl)-2′-fluoro-5-(((R)-tetrahydrofuran-2-yl)methoxy)-[1,1′-biphenyl]-3-yl)methoxy)phenyl)acetic acid] | 8.40
9 | NCc1cccc(-c2cc(COc3ccccc3CC(=O)O)cc(OC[C@H]3CCCO3)c2)c1F [Example 234-B, (R)-2-(2-((3′-(aminomethyl)-2′-fluoro-5-((tetrahydrofuran-2-yl)methoxy)-[1,1′-biphenyl]-3-yl)methoxy)phenyl)acetic acid] | 8.40
10 | C[C@@H](N)c1cccc(-c2cc(CCC3CCCC3)cc(COc3ccccc3CC(=O)O)c2)c1F [Example 237, (R)-2-(2-((3′-(1-aminoethyl)-5-(2-cyclopentylethyl)-2′-fluoro-[1,1′-biphenyl]-3-yl)methoxy)phenyl)acetic acid] | 7.96
11 | C[C@@H](N)c1cccc(-c2cc(CCC3CCCN3)cc(COc3ccccc3CC(=O)O)c2)c1F (stereo partly drawn) [Example 238, 2-(2-((3′-((R)-1-aminoethyl)-2′-fluoro-5-(2-(pyrrolidin-2-yl)ethyl)-[1,1′-biphenyl]-3-yl)methoxy)phenyl)acetic acid] | 7.64
12 | C[C@@H](N)c1cccc(-c2cc(CCC3CCCN3C)cc(COc3ccccc3CC(=O)O)c2)c1F (stereo partly drawn) [Example 240-B, 2-(2-((3′-((R)-1-aminoethyl)-2′-fluoro-5-(2-(1-methylpyrrolidin-2-yl)ethyl)-[1,1′-biphenyl]-3-yl)methoxy)phenyl)acetic acid] | 6.96
13 | CCN(CC1CC1)c1cc(COc2ccccc2CC(=O)O)cc(-c2cccc([C@@H](C)N)c2F)c1 [Example 242-C, (R)-2-(2-((3′-(1-aminoethyl)-5-((cyclopropylmethyl)(ethyl)amino)-2′-fluoro-[1,1′-biphenyl]-3-yl)methoxy)phenyl)acetic acid] | 7.05
14 | C[C@@H](N)c1cccc(-c2cc(COc3ccccc3CC(=O)O)cc(C3CCCC3)c2)c1F [Example 244, (R)-2-(2-((3′-(1-aminoethyl)-5-cyclopentyl-2′-fluoro-[1,1′-biphenyl]-3-yl)methoxy)phenyl)acetic acid] | 8.52
15 | C[C@@H](N)c1cccc(-c2cc(COc3ccccc3CC(=O)O)cc(CC3CCOCC3)c2)c1F [Example 246-C, (R)-2-(2-((3′-(1-aminoethyl)-2′-fluoro-5-((tetrahydro-2H-pyran-4-yl)methyl)-[1,1′-biphenyl]-3-yl)methoxy)phenyl)acetic acid] | > 9.00
16 | C[C@@H](N)c1cccc(-c2cc(COc3ccccc3CC(=O)O)cc(N3CCC3)c2)c1F [Example 247, (R)-2-(2-((3′-(1-aminoethyl)-5-(azetidin-1-yl)-2′-fluoro-[1,1′-biphenyl]-3-yl)methoxy)phenyl)acetic acid] | 8.00
17 | CCOC(=O)Cc1ccccc1OCc1cc(NC[C@H]2CCCO2)cc(-c2cccc([C@@H](C)N)c2F)c1 [Example 249, Ethyl 2-(2-((3′-((R)-1-aminoethyl)-2′-fluoro-5-((((R)-tetrahydrofuran-2-yl)methyl)amino)-[1,1′-biphenyl]-3-yl)methoxy)phenyl)acetate] | 4.57

Next, values leading:

Row | pIC50 | SMILES
18 | 7.36 | C[C@@H](N)c1cccc(-c2cccc(N(C)Cc3ccccc3CC(=O)O)c2)c1F [Example 220-D, (R)-2-(2-(((3′-(1-aminoethyl)-2′-fluoro-[1,1′-biphenyl]-3-yl)(methyl)amino)methyl)phenyl)acetic acid]
19 | 7.80 | C[C@@H](N)c1cccc(-c2cc(COc3ccccc3CC(=O)O)cc(NC[C@H]3CCCO3)c2)n1 [Example 225-C, 2-(2-((3-(6-((R)-1-aminoethyl)pyridin-2-yl)-5-((((R)-tetrahydrofuran-2-yl)methyl)amino)benzyl)oxy)phenyl)acetic acid]
20 | 8.10 | C[C@@H](N)c1cccc(-c2cc(COc3ccccc3CC(=O)O)cc(NCC(F)(F)F)c2)c1F [Example 226-C, (R)-2-(2-((3′-(1-aminoethyl)-2′-fluoro-5-((2,2,2-trifluoroethyl)amino)-[1,1′-biphenyl]-3-yl)methoxy)phenyl)acetic acid]
21 | 8.00 | C[C@@H](N)c1cccc(-c2cc(COc3ccccc3CC(=O)O)cc(NCC3(C)CC3)c2)c1F [Example 227, (R)-2-(2-((3′-(1-aminoethyl)-2′-fluoro-5-(((1-methylcyclopropyl)methyl)amino)-[1,1′-biphenyl]-3-yl)methoxy)phenyl)acetic acid]
22 | 6.97 | CC(=O)N(C)c1cc(COc2ccccc2CC(=O)O)cc(-c2cccc([C@@H](C)N)c2F)c1 [Example 229, (R)-2-(2-((3′-(1-aminoethyl)-2′-fluoro-5-(N-methylacetamido)-[1,1′-biphenyl]-3-yl)methoxy)phenyl)acetic acid]
23 | 8.52 | C[C@@H](N)c1cccc(-c2cc(COc3ccccc3CC(=O)O)cc(-c3cnn(C)c3)c2)c1F [Example 230, (R)-2-(2-((3′-(1-aminoethyl)-2′-fluoro-5-(1-methyl-1H-pyrazol-4-yl)-[1,1′-biphenyl]-3-yl)methoxy)phenyl)acetic acid]
24 | 8.05 | N[C@H](CO)c1cccc(-c2cc(COc3ccccc3CC(=O)O)cc(OC[C@H]3CCCO3)c2)c1F [Example 231-F, 2-(2-((3′-((S)-1-amino-2-hydroxyethyl)-2′-fluoro-5-(((R)-tetrahydrofuran-2-yl)methoxy)-[1,1′-biphenyl]-3-yl)methoxy)phenyl)acetic acid]
25 | 8.70 | C[C@@H](N)c1cccc(-c2cc(COc3ccccc3CC(=O)O)cc(OC[C@H]3CCCO3)c2)c1F [Example 232, 2-(2-((3′-((R)-1-aminoethyl)-2′-fluoro-5-(((R)-tetrahydrofuran-2-yl)methoxy)-[1,1′-biphenyl]-3-yl)methoxy)phenyl)acetic acid]
26 | 7.47 | C[C@@H](N)c1cccc(-c2cc(COc3ccccc3CC(=O)O)cc(OC[C@H]3CCCO3)c2)n1 [Example 235, 2-(2-((3-(6-((R)-1-aminoethyl)pyridin-2-yl)-5-(((R)-tetrahydrofuran-2-yl)methoxy)benzyl)oxy)phenyl)acetic acid]
27 | 8.05 | C[C@@H](N)c1cccc(-c2cc(CCC3CCCO3)cc(COc3ccccc3CC(=O)O)c2)c1F (stereo partly drawn) [Example 236-C, 2-(2-((3′-((R)-1-aminoethyl)-2′-fluoro-5-(2-(tetrahydrofuran-2-yl)ethyl)-[1,1′-biphenyl]-3-yl)methoxy)phenyl)acetic acid]
28 | 7.89 | C[C@@H](N)c1cccc(-c2cc(CCC3CNCCO3)cc(COc3ccccc3CC(=O)O)c2)c1F (stereo partly drawn) [Example 239-C, 2-(2-((3′-((R)-1-aminoethyl)-2′-fluoro-5-(2-(morpholin-2-yl)ethyl)-[1,1′-biphenyl]-3-yl)methoxy)phenyl)acetic acid]
29 | 7.40 | C[C@@H](N)c1cccc(-c2cc(COc3ccccc3CC(=O)O)cc(N3CCCCC3)c2)c1F [Example 241-C, (R)-2-(2-((3′-(1-Aminoethyl)-2′-fluoro-5-(piperidin-1-yl)-[1,1′-biphenyl]-3-yl)methoxy)phenyl)acetic acid]
30 | 7.89 | C[C@@H](N)c1cccc(-c2cc(COc3ccccc3CC(=O)O)cc(C3CCCCC3)c2)c1F [Example 243-D, (R)-2-(2-((3′-(1-aminoethyl)-5-cyclohexyl-2′-fluoro-[1,1′-biphenyl]-3-yl)methoxy)phenyl)acetic acid]
31 | 8.05 | C[C@@H](N)c1cccc(-c2cc(COc3ccccc3CC(=O)O)cc(N(C)CC3CC3)c2)c1F [Example 245, (R)-2-(2-((3′-(1-aminoethyl)-5-((cyclopropylmethyl)(methyl)amino)-2′-fluoro-[1,1′-biphenyl]-3-yl)methoxy)phenyl)acetic acid]
32 | 6.85 | C[C@@H](N)c1cccc(-c2cc(CCC3CCOCC3)cc(COc3ccccc3CC(=O)O)c2)c1F [Example 248, (R)-2-(2-((3′-(1-aminoethyl)-2′-fluoro-5-(2-(tetrahydro-2H-pyran-4-yl)ethyl)-[1,1′-biphenyl]-3-yl)methoxy)phenyl)acetic acid]
